Reference: patent US20190380999A1, “COMBINATIONS OF GENISTEIN AND BISPHOSPHONATES” (Primus Pharmaceuticals, Inc., priority 2018, published 2019)

How the values were obtained:
Format in all cases: cell-based, mouse
RAW267.4 cells [1] = test: Cell proliferation of RAW267.4 cells (attached cell count after 3 days culture); conditions: single agent 0.1, 1.0, 10 and 100 μM, control 0.1% ethanol vehicle, FIGS. 1A and B
Procedure: RAW267.4 cells were cultured for 3 days in Dulbecco's modification of Eagle's medium containing vehicle (0.1% ethanol), (A) alendronate, (B) genistein or (C) alendronate plus genistein. After culture, the number of attached cells on the dish was counted. Data are presented as the mean±standard deviation of two replicate wells per data set using different dishes and cell preparation. *P<0.001 vs. control group (grey bar) as determined by one-way analysis of variance and Tukey-Kramer post hoc test.
RAW267.4 cells (1×10^5/ml cells/well; 2 ml medium added per well in 24-well plates) were cultured in DMEM containing 10% FBS and 1% P/S for 3 days in a water-saturated atmosphere containing 5% CO2 and 95% air at 37° C. (23). The cells were cultured in the presence or absence of vehicle (ethanol; final concentration 0.1%), alendronate (0.1, 1, 10 or 100 μM), genistein (0.1, 1, 10 or 100 μM), or alendronate (0.1, 1, 10 or 100 μM) plus genistein (0.1, 1, 10, or 100 After culture, cells were detached from each culture dish and counted. Following trypsinization of each of culture dish using 0.2% trpysin plus 0.02% EDTA in Ca^2+/Mg^2+-free PBS for 2 min at 37° C., cells detached from the dish were collected following centrifugation at 150×g (4° C.) for 5 min (23). Cells were resuspended in PBS solution and stained with eosin. […] For each dish, the average of two counts was calculated. […]

RAW264.7 cells = test: Osteoclastogenesis assay, RANKL-induced, TRAP staining (TRAP-positive multinucleated cells); conditions: RANKL 30 ng/ml, 6 days; for effect on RANKL-induced osteoclastic differentiation (TRAP+ multinucleated cells): FIG. 3A; for effect on RANKL-stimulated osteoclastic differentiation (TRAP+ multinucleated cells): FIG. 3B
Procedure: Cells were cultured for 6 days with RANKL (30 ng/ml) pre-incubated for 10 min with crosslinking anti-poly-histidine antibody (2.5 μg/ml) in the presence or absence of vehicle (0.1% ethanol), (A) alendronate, (B) genistein or (C) alendronate plus genistein. After 6 days of culture, the cells were fixed and stained for TRAP.
RAW264.7 cells were cultured in 96-well plates in DMEM supplemented with 10% FBS and 1% P/S at a density of 1×10^4 cells/well. Cells were cultured for 6 days with RANKL (30 ng/ml) pre-incubated for 10 min with crosslinking anti-poly-histidine antibody (2.5 μg/ml; IC050P; R&D Systems, Inc., Minneapolis, Minn., USA) to induce osteoclast formation (21,22), in the presence or absence of vehicle (ethanol; final concentration 0.1%), alendronate (0.1, 1, 10 or 100 μM), genistein (0.1, 1, 10 or 100 μM), or alendronate (0.1, 1, 10 or 100 μM) plus genistein (0.1, 1, 10 or 100 μM). After 6 days of culture, the cells were fixed and stained for TRAP, a specific marker of the osteoclast phenotype, using a leukocyte acid phosphatase kit. […] TRAP-positive multinucleated cells (MNCs with at least three nuclei) were considered to be osteoclast-like cells, and the cells were counted using light microscopy (Olympus MTV-3). MNC scores are expressed as the mean±standard deviation of six cultures with two replicate wells per data set using different dishes and cell preparation.

RAW267.4 cells [2] = test: Cell death of confluent RAW267.4 cells (cell count after additional 2 days culture); conditions: single agent 0.1, 1.0, 10 and 100 μM, FIGS. 2A and B
Procedure: RAW267.4 cells were cultured for 3 days in Dulbecco's modification of Eagle's medium, and then the cells were additionally cultured for 2 days in the presence or absence of (A) alendronate, (B) genistein or alendronate plus genistein. After culture, the number of attached cells on the dish was counted.
RAW267.4 cells (1×10^5/ml cells/well; 2 ml medium added per well in 24-well plates) were cultured in DMEM containing 10% FBS and 1% P/S for 3 days when confluence was reached (24). The cells were then cultured for an additional 2 days in the presence or absence of alendronate (0.1, 1, 10 or 100 μM), genistein (0.1, 1, 10 or 100 μM), or alendronate (0.1, 1, 10 or 100 μM) plus genistein (0.1, 1, 10 or 100 μM). After culture, cells were detached from each culture dish and counted as described for the cell proliferation assay.

Row | Structure (SMILES) | effect on the proliferation of RAW267.4 cells (number of attached cells) vs control (RAW267.4 cells [1]) | effect on RANKL-induced osteoclastic differentiation (TRAP+ multinucleated cells) (RAW264.7 cells; alendronate alone 100 μM) | effect on RANKL-induced osteoclastic differentiation (TRAP+ multinucleated cells) (RAW264.7 cells; alendronate alone 0.1, 1.0 and 10 μM) | alteration in the number of RAW267.4 cells (cell death) (RAW267.4 cells [2]) | effect on RANKL-stimulated osteoclastic differentiation (TRAP+ multinucleated cells) (RAW264.7 cells; genistein alone 0.1 and 1.0 μM) | effect on RANKL-stimulated osteoclastic differentiation (TRAP+ multinucleated cells) (RAW264.7 cells; genistein alone 10 and 100 μM)
1 | NCCCC(O)(P(=O)(O)O)P(=O)(O)O [alendronate] | did not have a significant effect | suppressed | had no significant effect | did not cause a significant alteration | – | –
2 | O=c1c(-c2ccc(O)cc2)coc2cc(O)cc(O)c12 [genistein, 4′,5,7-trihydroxyisoflavone] | did not have a significant effect | – | – | did not cause a significant alteration | did not reveal an effect | suppressed
